Marks after values point to notes of the source that are not given here. No end group written: not given here.
Assays:
[1] = body weight of rats fed high nutrition diet (obesity induced by over-feeding); type: in vivo, Sprague-Dawley (SD) rats
Experimental: Sprague-Dawley (SD) rats, weighing 145±10 g, were supplied by the Center of Experimental Animal of Guangzhou University of Traditional Chinese Medicine, PR China (certificate No.: 2000A019). Peptides were custom synthesized (of L-amino acids origin) by American Peptide Company, Inc., USA, and were diluted to 10 μg/ml in normal saline. The high and normal nutrition diets were prepared in compliance with the guideline for pre-clinical research of anti-obesity drug, issued by SDA (State Drug Administration), PR China^[1].
Healthy rats were randomized into the experiment, positive control, and negative control groups. 10 rats per group, half male and half female. The experiment group of rats was fed with high nutrition diet for 5 weeks with simultaneous intramuscular injection of 300 μg/kg/day peptide, once per day. Positive control group received the same high nutrition diet but placebo saline injection, while negative control group, used to proof successful establishment of obesity model, received normal nutrition diet and placebo saline injection. After 5 weeks treatment, injection was stopped and the same diet was maintained for another 3 weeks. The rats were weighed at once per week interval. Behaviour of the rats was also observed.
The data were presented as mean±standard deviation. Paired t test or single-factor ANOVA was used for inter and intra group comparison. Statistical significance cut-off was at P≦0.05.

[2] = tested on: Duck Hepatitis B Virus (DHBV); assay: Chongqing duck hepatitis B model, serum DHBV DNA by dot-blot hybridization; type: in vivo, Chongqing ducks; conditions: CMS001 50 μg/kg/day i.p., lamivudine 50 mg/kg/day oral

Q: For PSIVGRPRHQGVM [CMS015], which body weight ([1]; Pre-treatment, Female n = 5, 300 μg/kg/day intramuscular) is on record?
A: 129.2 ± 3.3 g

Q: And the body weight ([1]; Pre-treatment, Male n = 5, 300 μg/kg/day intramuscular)?
A: 145.6 ± 8.5 g

Q: What about the body weight ([1]; Week 1, Female, 300 μg/kg/day intramuscular) of the same sequence?
A: 157.8 ± 8.3 g

Q: And the body weight ([1]; Week 1, Male, 300 μg/kg/day intramuscular)?
A: 183.8 ± 10.6 g

Q: What about the body weight ([1]; Week 2, Female, 300 μg/kg/day intramuscular) of the same sequence?
A: 176.0 ± 11.2 g

Q: What about the body weight ([1]; Week 2, Male, 300 μg/kg/day intramuscular) of the same sequence?
A: 220.6 ± 12.2 g

Q: And the body weight ([1]; Week 3, Female, 300 μg/kg/day intramuscular)?
A: 196.0 ± 10.5 g

Q: What about the body weight ([1]; Week 3, Male, 300 μg/kg/day intramuscular) of the same sequence?
A: 239.0 ± 16.0 g

Q: And the body weight ([1]; Week 4, Female, 300 μg/kg/day intramuscular)?
A: 212.0 ± 13.5 g

Q: What about the body weight ([1]; Week 4, Male, 300 μg/kg/day intramuscular) of the same sequence?
A: 258.2 ± 18.1 g

Q: What about the body weight ([1]; Week 5 (last week of injection), Female, 300 μg/kg/day intramuscular) of the same sequence?
A: 221.4 ± 13.2 g

Q: What about the body weight ([1]; Week 5 (last week of injection), Male, 300 μg/kg/day intramuscular) of the same sequence?
A: 268.8 ± 17.7 g

Q: And the body weight ([1]; Week 6 (injection stopped after week 5), Female)?
A: 235.6 ± 16.3 g

Q: What about the body weight ([1]; Week 6 (injection stopped after week 5), Male) of the same sequence?
A: 299.4 ± 21.2 g

Q: And the body weight ([1]; Week 7 (injection stopped after week 5), Female)?
A: 242.2 ± 18.8 g

Q: What about the body weight ([1]; Week 7 (injection stopped after week 5), Male) of the same sequence?
A: 310.4 ± 25.9 g

Q: And the body weight ([1]; Week 8 (injection stopped after week 5), Female)?
A: 252.8 ± 22.5 g

Q: And the body weight ([1]; Week 8 (injection stopped after week 5), Male)?
A: 337.4 ± 30.6 g

Q: Which “Serum DHBV DNA level” value ([2]; Day 0 (before treatment), Mean ± Standard Deviation) does the source give for PTTKTYFPHF [CMS001] here?
A: 21 ± 18 10^3 units

Q: What about the “Serum DHBV DNA level” value ([2]; Day 7 of treatment) of the same sequence?
A: 11 ± 13 10^3 units

Q: And the “Serum DHBV DNA level” value ([2]; Day 14 of treatment)?
A: 20 ± 18 10^3 units

Q: What about the “Serum DHBV DNA level” value ([2]; Day 21 of treatment) of the same sequence?
A: 14 ± 14 10^3 units

Q: And the “Serum DHBV DNA level” value ([2]; Day 28 (end of 4 weeks treatment))?
A: 5 ± 3* 10^3 units

Q: And the “Serum DHBV DNA level” value ([2]; Day 35 (one week after termination of treatment))?
A: 18 ± 16 10^3 units

From US7718768B2, “Biologically active peptide [sequence]” (CMS Peptides Patent Holding Company Limited, priority 2001, dated 2010)
